# Reference: patent US20070054886A1, “Ras antagonists for treating neurodegenerative disorders” (RAMOT AT TEL AVIV UNIVERSITY, LTD., priority 2003, published 2007)
# “And” between values parts separate entries of the source, which are not always exact repeats. Equal entries are not always repeated.
# Experiments:
# Ras-GTP = system: Ras-GTP
# From the text: The study was approved by the Institutional Animal Care Committee of Hadassah Medical Center and the Hebrew University. Sixty male C57bl mice weighing 25 to 35 g were used. CHI was induced under ether anesthesia, as previously described (Chen et al., 1996) and modified (Yatsiv et al., 2002). Briefly, after induction of ether anesthesia the skull was exposed by a midline longitudinal incision. A tipped Teflon cone was placed in the mid-coronal plane above the left anterior frontal area, 1 mm lateral to the midline. A weight (74 g) was dropped onto the cone (from a height of 15 cm), resulting in a focal injury. After trauma, animals received supporting oxygenation with 100% O2 for no longer than 2 min and were then returned to their cages. Sham-injured mice were anesthetized and their skin was incised, but they were not subjected to CHI.
# In the first experiment mice were sacrificed 10, 30, or 120 min after sham-injury or CHI to assess levels of Ras=GTP and phospho=ERK. In the second set of experiments, the animals received FTS (5 mg/kg i.p.) or vehicle, 1 hr after CHI and sham-injured mice received the vehicle (n=4 per group). The mice were sacrificed 2 or 24 hrs after CHI, their brains were removed, and cortical tissue samples adjacent or contra-lateral to the site of injury were homogenized in homogenization buffer containing protease inhibitors and 0.5% Triton X100 as described (Haklai et al., 1998). Debris was removed by centrifugation and protein in the extract was determined with the aid of the Bio-Rad protein assay (Bio-Rad Laboratories, GmbH). Total Ras protein was determined by Western immunoblotting of 30 μg of protein with 1:2500 pan-Ras Ab (Oncogene Research Products, followed by 1:7500 peroxidase goat anti-mouse IgG (Haklai et al., 1998). For determination of GTP-bound Ras in protein samples (1 mg), Ras-GTP was pulled down by glutathione-S-transferase fused to the Ras-binding domain of Raf (GST-RBD) which binds Ras-GTP only. The GST-RBD-Ras-GTP was pulled down with glutathione-agarose beads, and Ras was then determined by immunoblotting with pan-Ras Ab as described above, followed by enhanced chemiluminescence (ECL; Amersham Pharmacia Biotech, Piscataway, N.J., U.S.A) (Paz et al., 2000). The bands were quantified by densitometry with Image Master VDS-CL (Amersham Biotech) using TINA 2.0 software (Ray Tests).
# [1] = system: mice subjected to closed head injury (CHI); assay: Lesion volume after CHI in mice; type: in vivo, mouse; details: day 7 after CHI
# Description: (§1) Seven days after CHI, vehicle-treated (n=5) and FTS-treated (n=4) mice were decapitated and their brains were removed (within 1 minute), frozen in powdered dry ice, and kept at −70° C. until used. Consecutive 20-μ cryostat sections of the whole forebrain were cut in the coronal plane, and one in every ten sections (i.e. at intervals of 200μ) was thaw-mounted onto coated microscope glass slides.
# (§2) The films were scanned and digitized using PhotoShop and a large bed Umax scanner, and saved in tiff format for accessibility to NIH image software. Using NIH Image routines, the standard curve was measured and used to calibrate regional brain measurements. Morphometry routines were used to measure the lesion area on each section where it was visible. The volume was calculated by multiplying the summed lesion areas by the distance between sections (0.2 mm).
# NMDA receptors (NMDAR) = assay: NMDAR quantitative autoradiography ([3H]MK-801 binding) in brain sections of CHI mice; type: in vivo, mouse; details: seven days after CHI, FTS 5 mg/kg 1 hr after CHI
# Description: as §1
# NMDAR autoradiography was performed as described (Bowery et al., 1988), with some modifications. […] At the end of incubation, the sections were dipped for 5 seconds in ice-cold buffer, washed for 90 minutes in cold fresh buffer, and then dipped in ice-cold distilled water. The dried tissue sections were exposed to tritium-sensitive film accompanied by commercial calibrated tritium standard scales (Amersham). After exposure for 36 days, the films were developed in Kodak D-19, fixed, and dried. The sections were then stained with cresyl violet for anatomical region placement according to a mouse brain atlas (Paxinos and Franklin, 1997) and for identification of lesions.
# as §2
# phospho-ERK = assay: ERK and phospho-ERK immunoblot in brains of CHI mice; type: in vivo, mouse; details: 2 hrs after CHI
# Description: ERK and phospho-ERK were determined in 30 μg of brain extract proteins by immunoblotting, ECL, and densitometry (Paz et al., 2000). ERK immunoblots were incubated with 1:2000 rabbit anti-ERK1/2 Ab (Santa-Cruz) and then with 1:1000 peroxidase-goat anti rabbit IgG. Phospho-ERK immunoblots were incubated with 1:10,000 mouse anti-phospho-ERK Ab (Sigma) and then with 1:10,000 peroxidase-goat anti-mouse IgG.
# [2] = cited from earlier work
# [3] = 2 hrs after CHI, drug i.p. 1 hr after CHI, FTS 5 mg/kg, MK-801 0.5 mg/kg or 1 mg/kg, mean±SD
# [4] = left (ipsilateral) hemisphere, mean ± SD, 4 mice
# [5] = right (contra-lateral) hemisphere, mean ± SD, 4 mice
structure (smiles),measurement,setting,value
"CC(C)=CCC/C(C)=C/CC/C(C)=C/CSc1ccccc1C(=O)O [FTS, farnesyl-thiosalicylic acid]","inhibition of the CHI-induced increase in Ras-GTP, left (contused) hemisphere",Ras-GTP; [3],81.7±10.0% and 75.2±6.8% and 82% and 82±10%
same,"inhibition of the CHI-induced increase in Ras-GTP, right (contra-lateral) hemisphere",Ras-GTP; [3],70.4±12.0% and 67.2±7.1% and 70±12%
same,"inhibition of Ras-GTP, range over both hemispheres","Ras-GTP; CHI mice, 2 hrs after CHI",70-82%
same,effect on the total amount of Ras in the brain,Ras-GTP; FTS 5 mg/kg i.p. 1 hr after CHI,no effect
same,effect on Ras-GTP levels 24 hrs after CHI,"Ras-GTP; FTS 5 mg/kg i.p. 1 hr after CHI, assessed 24 hrs after CHI",almost no effect
same,mean lesion volume,"[1]; FTS 5 mg/kg 1 hr after CHI, mean±SD of 4 animals, control 155±41 μL, p<0.07",87 ± 53 µL
same,reduction in lesion volume (lesion size),"[1]; FTS 5 mg/kg vs vehicle, trend, p<0.07",50%
same,"lesion volume, range","[1]; FTS 5 mg/kg, 4 animals",37 to 161 µL
same,effect of trauma on the binding of [3H]-MK-801 to the NMDA receptors,"NMDA receptors (NMDAR); ANOVA, no significant difference between sides (P=0.5)",completely reversed
same,"NMDA-receptor density, dorsal striatum, left",NMDA receptors (NMDAR); [4],4.32 ± 0.32 nCi of [^3H]-MK-801 specifically bound/mg
same,"NMDA-receptor density, frontal motor cortex, left",NMDA receptors (NMDAR); [4],6.32 ± 2.12 nCi of [^3H]-MK-801 specifically bound/mg
same,"NMDA-receptor density, hippocampus CA1, left",NMDA receptors (NMDAR); [4],9.85 ± 1.34 nCi of [^3H]-MK-801 specifically bound/mg
same,"NMDA-receptor density, hippocampus CA3, left",NMDA receptors (NMDAR); [4],7.69 ± 0.96 nCi of [^3H]-MK-801 specifically bound/mg
same,"NMDA-receptor density, parietal cortex, left",NMDA receptors (NMDAR); [4],5.69 ± 1.18 nCi of [^3H]-MK-801 specifically bound/mg
same,"NMDA-receptor density, perirhinal cortex, left",NMDA receptors (NMDAR); [4],5.92 ± 0.72 nCi of [^3H]-MK-801 specifically bound/mg
same,"NMDA-receptor density, piriform cortex, left",NMDA receptors (NMDAR); [4],5.65 ± 1.54 nCi of [^3H]-MK-801 specifically bound/mg
same,"NMDA-receptor density, ventral striatum, left",NMDA receptors (NMDAR); [4],4.06 ± 1.82 nCi of [^3H]-MK-801 specifically bound/mg
same,"NMDA-receptor density, dorsal striatum, right",NMDA receptors (NMDAR); [5],5.45 ± 1.72 nCi of [^3H]-MK-801 specifically bound/mg
same,"NMDA-receptor density, frontal motor cortex, right",NMDA receptors (NMDAR); [5],6.63 ± 1.7 nCi of [^3H]-MK-801 specifically bound/mg
same,"NMDA-receptor density, hippocampus CA1, right",NMDA receptors (NMDAR); [5],9.25 ± 0.32 nCi of [^3H]-MK-801 specifically bound/mg
same,"NMDA-receptor density, hippocampus CA3, right",NMDA receptors (NMDAR); [5],7.23 ± 0.42 nCi of [^3H]-MK-801 specifically bound/mg
same,"NMDA-receptor density, parietal cortex, right",NMDA receptors (NMDAR); [5],7.04 ± 1.46 nCi of [^3H]-MK-801 specifically bound/mg
same,"NMDA-receptor density, perirhinal cortex, right",NMDA receptors (NMDAR); [5],5.97 ± 0.88 nCi of [^3H]-MK-801 specifically bound/mg
same,"NMDA-receptor density, piriform cortex, right",NMDA receptors (NMDAR); [5],5.57 ± 0.84 nCi of [^3H]-MK-801 specifically bound/mg
same,"NMDA-receptor density, ventral striatum, right",NMDA receptors (NMDAR); [5],5.21 ± 0.54 nCi of [^3H]-MK-801 specifically bound/mg
same,effect on amounts of total ERK,phospho-ERK,Neither inhibitor altered
same,"inhibition (reduction) of phospho-ERK, right (contra-lateral) hemisphere","phospho-ERK; drug i.p. 1 hr after CHI, FTS 5 mg/kg, MK-801 0.5 mg/kg or 1 mg/kg",73.2±8.3% and 73±8%
same,side effects at the 5 mg/kg dose in animal models of neoplasticity,"[2]; 5 mg/kg FTS, previous studies (Jansen et al., 1999; Kloog et al., 1999)",without inadvertent side effects
same,toxicity and adverse side effects in animals,"[2]; Kloog et al., 1999",not to be toxic and have no adverse side effects
